Test results as given in patent publication US20210100826A1 (UNIVERSITY HOSPITAL CLEVELAND MEDICAL CENTER, priority 2017, published 2021).
Values joined by “and” are separate entries in the source; they are usually repeats but may differ in a detail not shown here. Equal values may be shown once.

Experiments:
[1] = target: T1, cloned P2X7 ATP-activated channel (human P2RX7 gene expressed in HEK293 cells) (Homo sapiens, UniProt Q99572); assay: Electrochemical patch clamp assay of P2X7 receptor activation (agonist mode, QPatch HT); type: cell-based; conditions: for Individual Data Points (% Activation): single cells; for EC50: whole-cell patch clamp, holding voltage −80 mV, room temperature; for decrease in EC50 when compared to BzBz-ATP / decrease in EC50 when compared to native ATP: ratio of EC50 values
T1 construct: HEK293 cells were stably transfected with the appropriate ion channel cDNA encoding the pore-forming channel subunit; expressed in transfected cells
T1 sequence (Q99572 1-595): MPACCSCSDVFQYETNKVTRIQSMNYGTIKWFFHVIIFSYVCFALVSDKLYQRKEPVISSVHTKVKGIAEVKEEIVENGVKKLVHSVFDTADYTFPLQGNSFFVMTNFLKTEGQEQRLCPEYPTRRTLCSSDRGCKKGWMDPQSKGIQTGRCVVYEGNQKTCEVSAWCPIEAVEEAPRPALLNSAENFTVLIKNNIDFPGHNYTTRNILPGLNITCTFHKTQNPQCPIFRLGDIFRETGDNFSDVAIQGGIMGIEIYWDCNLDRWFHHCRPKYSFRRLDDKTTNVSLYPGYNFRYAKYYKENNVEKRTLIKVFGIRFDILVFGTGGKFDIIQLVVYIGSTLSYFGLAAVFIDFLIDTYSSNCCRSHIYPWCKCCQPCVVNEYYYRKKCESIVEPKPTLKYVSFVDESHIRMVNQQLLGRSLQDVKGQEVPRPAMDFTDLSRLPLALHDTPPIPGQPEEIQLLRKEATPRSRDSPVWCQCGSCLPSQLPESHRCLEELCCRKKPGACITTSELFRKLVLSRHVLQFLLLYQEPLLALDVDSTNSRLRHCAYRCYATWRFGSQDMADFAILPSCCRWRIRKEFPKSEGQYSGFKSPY

[2] = tested on: DMBA/TPA-induced skin papillomas and squamous spindle-cell carcinomas; assay: Mouse two-step DMBA/TPA skin neoplasia model, local co-treatment with BzBzATP; type: in vivo
Method: Experiments were performed to test the hypothesis that activation of the P2X7 receptor could inhibit development of epidermal neoplasia. These experiments utilized the mouse two-step DMBA/TPA skin neoplasia model, which involves tumor initiation by local treatment with DMBA, followed by tumor promotion by local treatment with TPA. Agarwal et al, “Inhibitory effect of 18beta-glycyrrhetinic acid on 12-O-tetradecanoyl phorbol-13-acetate-induced cutaneous oxidative, stress and tumor promotion in mice” Redox Rep 10:151-157 (2005); and Guo et al, “Disruption of EphA2 receptor tyrosine kinase leads to increased susceptibility to carcinogenesis in mouse skin” Cancer Res 66:7050-7058 (2006). Mice had their dorsal skin shaved, and DMBA was applied once by topical application onto the shaved dorsal skin. TPA treatment by topical application onto the shaved dorsal skin was started one week later and continued twice a week for 12 weeks.
Animals were divided into three groups: Control mice (n=15) that had their back shaved and were treated only with the vehicle; DMBA/TPA-treated mice (n=15); and DMBA/TPA-treated mice that were co-treated with BzBzATP twice a week from week −2 (i.e. two weeks prior to DMBA) (n=14). All treatments were applied locally on the shaved dorsal skin. Papilloma development was monitored weekly from week 5 to 12 after the DMBA. Endpoints were percent animals with at least one papilloma; number of papilloma per animal; and mean papilloma size (e.g., millimeters of the largest lesion dimension). None of the animals in the control group had developed papillomas.
To evaluate the effects of BzBzATP, changes in skin lesions in the DMBA/TPA and DMBA/TPA+BzBzATP groups were compared relative to the length of treatment. Since formation of papillomas and cancerous lesions was time-related (i.e., for example, a marked cut-off occurs between weeks 13-14; see, FIG. 4A), data were analyzed separately for weeks 0-12 and weeks 14-28.

[3] = UV radical generation activity; type: physicochemical
P2X7 = target: T2, P2X7 (Homo sapiens, UniProt Q99572); conditions: stated without test; read-out: EC50 as P2X7 agonist; cited from earlier work
T2 sequence (Q99572 1-595): T1 sequence (Q99572 1-595)

[4] = week 10, DMBA/TPA+BzBzATP group
[5] = week 12, DMBA/TPA+BzBzATP group
[6] = week 28, DMBA/TPA+BzBzATP group

| Mean % P2X7 Activation ([1]; Conc 1 μM) | Individual Data Points (% Activation) ([1]; Conc 1 μM) | Mean % P2X7 Activation ([1]; Conc 10 μM) | Individual Data Points (% Activation) ([1]; Conc 10 μM) | Mean % P2X7 Activation ([1]; Conc 100 μM) | Individual Data Points (% Activation) ([1]; Conc 100 μM) | Mean % P2X7 Activation ([1]; Conc 500 μM) | Individual Data Points (% Activation) ([1]; Conc 500 μM) | EC50 [1] | decrease in EC50 when compared to BzBz-ATP [1] | decrease in EC50 when compared to native ATP [1] | Molecule | UV radical generation activity [3] | EC50 (P2X7) | also measured |
| --- | --- | --- | --- | --- | --- | --- | --- | --- | --- | --- | --- | --- | --- | --- |
| 0.0% | 0.1% and 0.0% and −0.2% | 6.7% | 2.2% and 14.9% and 2.9% | 16.9% | 7.2% and 29.6% and 13.8% | 100.0% | 100.0% | 218 µM | – | – | 2′,3′-0-(4-benzoylbenzoyl)-adenosine 5′-triphosphate [BzBzATP, reference compound] | high degree of UV radical generation activity | ~50 µM | P2X7 receptor activation efficacy, comparison in words [1]: slight improvement of receptor activation efficacy; Individual Data Points (% Activation) ([1]; Conc 200 μM): 34.8% and 41.8% and 39.4%; TUNEL staining of papilloma tissue ([2]; biopsy at week 10, basal/parabasal regions): intense TUNEL staining; decrease of the mean number of papillomas per animal ([2]; versus DMBA/TPA group): about 25%; decrease of the mean papilloma size ([2]; versus DMBA/TPA group): about 45%; proportion of living animals with cancerous lesions >200 mm^3 ([2]; versus DMBA/TPA group): differences did not reach statistical significance; proportion of living animals having a papilloma ([2]; week 5, DMBA/TPA+BzBzATP group): 48±12%; animals having at least one papilloma ([2]; week 6, DMBA/TPA+BzBzATP group): 53.8%; papillomas per animal (mean±SEM) [2, 4]: 1.23±0.34; papillomas per living animal (mean±SD) [2, 4]: 1.2±0.4; mean papilloma size per animal (mean±SEM) [2, 5]: 3.46±0.73 mm; mean total papillomas size per animal (mean±SD) [2, 5]: 3.4±1.0 mm; animals that developed at least one skin papilloma ([2]; week 12, DMBA/TPA+BzBzATP group, local on dorsal skin twice a week): 78%; proportion of living animals with cancerous lesions [2, 6]: 43±9%; proportion of living animals with cancerous lesions >10 mm^3 [2, 6]: 16±4% |
| 12.3% | 7.0% and 45.4% and 6.7% and −9.7% | 74.7% | 36.6% and 167.5% and 39.7% and 54.9% | 186.3% | 85.6% and 284.3% and 136.9% and 238.4% | 320.8% | 346.4% and 357.0% and 209.5% and 370.2% | 49.1 µM | ~445% | ~738% | Nc1ncnc2c1ncn2[C@@H]1O[C@H](COP(=O)(O)OP(=O)(O)OP(=O)(O)O)[C@@H](OC(=O)c2cccc(Oc3ccccc3)c2)[C@H]1O [ATP-(3-phenoxy)benzoyl, 3-phenoxybenzoyl-ATP] | – | – | – |
| 8.1% | −2.1% and 26.6% and −0.3% | 29.9% | 45.1% and 18.1% and 26.4% | 42.0% | 38.7% and 64.8% and 22.6% | 96.9% | 98.3% and 124.6% and 67.7% | 62.4 µM | ~350% | ~580% | CCCCCCCCCCCC(=O)O[C@H]1[C@@H](O)[C@H](n2cnc3c(N)ncnc32)O[C@@H]1COP(=O)(O)OP(=O)(O)OP(=O)(O)O [ATP-lauroyl, lauroyl-ATP] | low or no UV radical generation activity | – | EC50 ([1]; listed as lauroyl-ATP): ~62 µM; dissolution in a solution with 0.3% DMSO: not totally dissolved |
| – | – | – | – | – | – | – | – | 363 µM | – | – | Nc1ncnc2c1ncn2[C@@H]1O[C@H](COP(=O)(O)OP(=O)(O)OP(=O)(O)O)[C@@H](O)[C@H]1O [NaATP, adenosine triphosphate, reference compound] | – | ~100 µM | Mean % P2X7 Activation ([1]; Conc 300 μM): 40.9%; Mean % P2X7 Activation ([1]; Conc 750 μM): 75.4% |
| – | – | – | – | – | – | – | – | – | – | – | Nc1ncnc2c1ncn2[C@@H]1O[C@H](COP(=O)(O)OP(=O)(O)OP(=O)(O)O)[C@@H](OC(=O)/C=C/c2ccccc2)[C@H]1O [cinnamoyl-ATP] | low or no UV radical generation activity | – | – |

| Molecule | Mean % P2X7 Activation ([1]; Conc 1 μM) | Individual Data Points (% Activation) ([1]; Conc 1 μM) | Mean % P2X7 Activation ([1]; Conc 10 μM) | Individual Data Points (% Activation) ([1]; Conc 10 μM) | Mean % P2X7 Activation ([1]; Conc 100 μM) | Individual Data Points (% Activation) ([1]; Conc 100 μM) | Mean % P2X7 Activation ([1]; Conc 500 μM) | Individual Data Points (% Activation) ([1]; Conc 500 μM) | EC50 [1] | decrease in EC50 when compared to BzBz-ATP [1] | decrease in EC50 when compared to native ATP [1] | UV radical generation activity [3] | EC50 (P2X7) | also measured |
| --- | --- | --- | --- | --- | --- | --- | --- | --- | --- | --- | --- | --- | --- | --- |
| Nc1ncnc2c1ncn2[C@@H]1O[C@H](COP(=O)(O)OP(=O)(O)OP(=O)(O)O)[C@@H](OC(=O)c2ccccc2)[C@H]1O [3′-O-(Benzoyl) Adenosine-5-Triphosphate, 3′-O-(benzoyl)-adenosine-5-triphosphate] | 8.3% | 15.8% and 9.7% and −0.7% | 43.0% | 65.4% and 42.3% and 21.3% | 94.5% | 102.5% and 82.3% and 98.7% | 129.2% | 148.4% and 129.1% and 110.2% | 24 µM | ~910% | ~1511% | low or no UV radical generation activity | – | – |
